In PubChem BioAssay (NCI):
“And” between values parts separate entries of the source, which are not always exact repeats. Identical values can stand only once.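 Cultured in 96-well plates, cells were exposed to test compound for 48 hours across five concentrations. GI50 = concentration required for 50% inhibition of growth. The concentration for full growth arrest is given as TGI.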 Where a SMILES comes first, the peptide text is derived from it. [ ]: non-standard residue; d: D form. The star is where a group is joined. ξ: configuration not given here. X6 = FC(F)(F)c1cc(NC(=S)*)cc(C(F)(F)F)c1; ξF = NC(Cc1ccccc1)C(=O)O

Each compound was assayed on MDA-MB-468 breast (assay: growth of human tumour cells (NCI), 48 h).
`COc1cc(-c2nn(-c3ccc(NC(=O)c4ccc(Cl)c(C(F)(F)F)c4)cc3)cc2-c2ccncc2)ccc1Cl` gave a GI50 of 2.95 µM and a TGI of 16 µM. `CO[C@H](C(=O)[C@@H](O)[C@@H](C)O)[C@@H]1Cc2cc3cc(O[C@H]4C[C@@H](O[C@H]5C[C@@H](O)[C@H](O)C(C)O5)[C@H](O)C(C)O4)c(C)c(O)c3c(O)c2C(=O)[C@H]1O[C@H]1C[C@@H](O[C@H]2C[C@@H](O[C@H]3C[C@](C)(O)C(=O)C(C)O3)[C@@H](O)C(C)O2)[C@H](O)C(C)O1` (stereo not given in full) showed a GI50 of 0.0684 µM and a TGI of 0.515 µM. Compound `CCC(CO)Nc1nc2ccc(Cl)cc2c2ccccc12` (stereo not given) has a GI50 of 5.28 µM and a TGI of 19.5 µM. Compound `OCc1ccc(N2CCC2c2ccc(F)cc2)cc1Cl` (stereo not given) has a GI50 of 0.0304 µM and a TGI of 0.251 µM. `Cc1nc2ccccc2c(N)c1-c1cc(C)c2c(C)nc3ccccc3c2n1` was tested, and the GI50 was 1.64 µM and the TGI was 3.73 µM. For `COc1ccc2[nH]cc(-c3csc4nc(-c5ccccc5)cn34)c2c1`, the GI50 was 0.362 µM and the TGI was 2.07 µM. `Clc1ccc2c(NCCCCNc3nc(N4CCCCC4)nc4ccccc34)ccnc2c1` gave a GI50 of 1.64 µM and a TGI of 3.63 µM. In the case of `CC(C)CCC[C@@H](C)[C@H]1CC[C@H]2[C@@H]3CC=C4C[C@@H](C(C(=O)O)C(=O)O)CC[C@]4(C)[C@H]3CC[C@]12C`, the GI50 is reported as 0.337 µM and the TGI is reported as 0.892 µM. In the case of `C#Cc1ccc(-n2c(/C=C/c3ccc(C(F)(F)F)cc3)nc3ncccc3c2=O)cc1`, the GI50 is reported as 1.51 µM and the TGI is reported as 3.63 µM. With `O=C1CC(c2ccc3c(c2)OCO3)Nc2ccccc21` (stereo not given) the GI50 was 4.22 µM and the TGI was 23.9 µM. For `COC1CCC(N2C(=O)CNc3ncc(-c4ccc(C(C)(C)O)nc4)nc32)CC1` (stereo not given), the GI50 was 0.43 µM and 0.407 µM and the TGI was 3.51 µM and 5.38 µM. With `CCCCCN(CCCCC)CC(O)c1cc(C)c2ccc3cc(C(C)C)ccc3c2c1` (stereo not given) the GI50 was 1.74 µM and the TGI was 3.29 µM. `COC1=CC(c2ccc[nH]2)=N/C1=C\c1[nH]c(C)c(C(=O)OC(C)C)c1C` gave a GI50 of 0.111 µM and a TGI of 1.39 µM. `CCCCCN(CCCCC)CCCNc1c2c(nc3ccc(Cl)cc13)CCCC2` was tested, and the GI50 was 2.44 µM and the TGI was 6.31 µM. Work on `NC(=O)c1sc(-n2cnc3ccccc32)cc1OCc1ccccc1Br` yielded a GI50 of 0.34 µM and a TGI of 2.18 µM. With `COc1ccc2c(C3=C(c4cn(C)c5ccccc45)C(=O)NC3=O)cn(C)c2c1` the GI50 was 0.112 µM and the TGI was 10.2 µM. `O=C(/C=C/C12c3ccccc3C(c3ccccc31)C1C(=O)NC(=O)C12)c1ccncc1` (stereo not given) gave a GI50 of 1.82 µM and a TGI of 4.02 µM. Work on `NC(=O)c1cccc2cn(-c3ccc([C@@H]4CCCNC4)cc3)nc12` yielded a GI50 of 6.09 µM and a TGI of 18.9 µM. In the case of `Nc1nc(-c2cccc([N+](=O)[O-])c2)c(N=Nc2cccc([N+](=O)[O-])c2)s1`, the GI50 is reported as 30.5 µM and the TGI is reported as > 100 µM. For `Cn1cc(C2=C(c3cn(C)c4ncccc34)C(=O)NC2=O)c2ccccc21`, the GI50 was 5.47 µM and the TGI was > 25 µM. `O=C(Nc1ccc(Cl)c(Cl)c1)Nc1ccc(Cl)c(Cl)c1` was tested, and the GI50 was 1.84 µM and 2.21 µM and the TGI was 6.69 µM and 6.1 µM. In the case of `COC(=O)[C@@H](NC(=O)CNC(=O)[C@H]1CCCN1C(=O)C(Cc1ccccc1)NC(=S)Nc1cc(C(F)(F)F)cc(C(F)(F)F)c1)C(C)C` (stereo not given in full) (X6-[ξF][dP]GV-OMe), the GI50 is reported as 1.5 µM and the TGI is reported as 3.23 µM. With `Cc1ccc(C(=O)/C(=C/c2ccc([N+](=O)[O-])cc2)SCc2ccc(Cl)cc2)cc1` the GI50 was 2.76 µM and the TGI was 7.46 µM. With `O=C1/C(=C/c2cccc([N+](=O)[O-])c2)COc2ccc(O)cc21` the GI50 was 2.26 µM and the TGI was 5 µM. Compound `CC/C=C\CCC/C=C1/C(=O)C=C[C@@H]1C/C=C\CCCC(=O)OC` has a GI50 of 3.2 µM and a TGI of 10.1 µM.
